Reference: PubChem BioAssay AID1963848 (Molecular Pharmacology Branch, DTP, NCI, 2024)

System: 379773-124-R-J2-PDC spheroid viability
Assay: Anticancer human tumor 379773-124-R-J2-PDC patient-derived endometrial carcinoma cell line growth inhibition [POLQ]
Conditions: spheroids with HUVEC and MSC; for IC50: curve of first compound; for viability, T/C: stronger effect = lower value
Method in brief: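 Complex spheroid viability model combining PDC tumour cells with endothelial (HUVEC) and MSC stromal cells. Novobiocin, ART-558 or RP6685 were tested singly and in combination with standard and investigational anticancer drugs. Each was titrated in half-log steps from near clinical Cmax, or from 10 microM where Cmax was unknown.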

[1] = second compound 0.0316 µM, first compound 0.00316 µM
[2] = second compound 0.0316 µM, first compound 0.01 µM
[3] = second compound 0.0316 µM, first compound 0.0316 µM
[4] = second compound 0.0316 µM, first compound 0.1 µM
[5] = second compound 0.1 µM, first compound 0.00316 µM
[6] = second compound 0.1 µM, first compound 0.01 µM
[7] = second compound 0.1 µM, first compound 0.0316 µM
[8] = second compound 0.1 µM, first compound 0.1 µM
[9] = second compound 0.316 µM, first compound 0.00316 µM
[10] = second compound 0.316 µM, first compound 0.01 µM
[11] = second compound 0.316 µM, first compound 0.0316 µM
[12] = second compound 0.316 µM, first compound 0.1 µM
[13] = second compound 1 µM, first compound 0.00316 µM
[14] = second compound 1 µM, first compound 0.01 µM
[15] = second compound 1 µM, first compound 0.0316 µM
[16] = second compound 1 µM, first compound 0.1 µM
[17] = second compound 3.16 µM, first compound 0.00316 µM
[18] = second compound 3.16 µM, first compound 0.01 µM
[19] = second compound 3.16 µM, first compound 0.0316 µM
[20] = second compound 3.16 µM, first compound 0.1 µM
[21] = second compound 10 µM, first compound 0.00316 µM
[22] = second compound 10 µM, first compound 0.01 µM
[23] = second compound 10 µM, first compound 0.0316 µM
[24] = second compound 10 µM, first compound 0.1 µM
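Also: spheroids exposed to drugs for seven days before readout.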
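For viability, T/C in this document: percent viability relative to DMSO vehicle control taken as 100%.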

With `COc1cccc(OCCCN)c1-c1cc(Nc2cnc(C#N)cn2)n[nH]1` + COC1C(OC(N)=O)C(O)C(Oc2ccc3c(O)c(NC(=O)c4ccc(O)c(CC=C(C)C)c4)c(=O)oc3c2C)OC1(C)C the IC50 (second compound 0.0316 µM) was 4.43 nM, the IC50 (second compound 0.1 µM) was 3.53 nM and the IC50 (second compound 0.316 µM) was 3.5 nM. For the same molecule, the IC50 (second compound 1 µM) was 4.46 nM, the IC50 (second compound 3.16 µM) was 3.76 nM and the IC50 (second compound 10 µM) was 3.81 nM. For the same molecule, the viability, T/C [1] was 69.1%, the viability, T/C [2] was 3.94% and the viability, T/C [3] was 2.78%. For the same molecule, the viability, T/C [4] was 2%, the viability, T/C (second compound 0.0316 µM, first compound 0.316 µM) was 1.77% and the viability, T/C (second compound 0.0316 µM, first compound 1 µM) was 1.34%. It also gave a viability, T/C [5] of 54.7%, a viability, T/C [6] of 5.02% and a viability, T/C [7] of 2.47%. The viability, T/C [8] was 1.87%, the viability, T/C (second compound 0.1 µM, first compound 0.316 µM) was 2.26% and the viability, T/C (second compound 0.1 µM, first compound 1 µM) was 1.32%. The viability, T/C [9] was 54.3%, the viability, T/C [10] was 4.98% and the viability, T/C [11] was 2.58%. It also gave a viability, T/C [12] of 1.9%, a viability, T/C (second compound 0.316 µM, first compound 0.316 µM) of 1.7% and a viability, T/C (second compound 0.316 µM, first compound 1 µM) of 0.97%. For the same molecule, the viability, T/C [13] was 69.2%, the viability, T/C [14] was 5.09% and the viability, T/C [15] was 1.91%. For the same molecule, the viability, T/C [16] was 2%, the viability, T/C (second compound 1 µM, first compound 0.316 µM) was 1.74% and the viability, T/C (second compound 1 µM, first compound 1 µM) was 1.47%. The viability, T/C [17] was 57.9%, the viability, T/C [18] was 5.31% and the viability, T/C [19] was 2.5%. It also gave a viability, T/C [20] of 2.18%, a viability, T/C (second compound 3.16 µM, first compound 0.316 µM) of 1.81% and a viability, T/C (second compound 3.16 µM, first compound 1 µM) of 1.54%. For the same molecule, the viability, T/C [21] was 58.8%, the viability, T/C [22] was 4.41% and the viability, T/C [23] was 2.84%. It also gave a viability, T/C [24] of 2.3%, a viability, T/C (second compound 10 µM, first compound 0.316 µM) of 3.07% and a viability, T/C (second compound 10 µM, first compound 1 µM) of 1.39%.

With `Cn1ncnc1[C@H]1c2n[nH]c(=O)c3cc(F)cc(c23)N[C@@H]1c1ccc(F)cc1` + COC1C(OC(N)=O)C(O)C(Oc2ccc3c(O)c(NC(=O)c4ccc(O)c(CC=C(C)C)c4)c(=O)oc3c2C)OC1(C)C the IC50 (second compound 0.0316 µM) was > 100 nM, the IC50 (second compound 0.1 µM) was > 100 nM and the IC50 (second compound 0.316 µM) was > 100 nM. The IC50 (second compound 1 µM) was > 100 nM, the IC50 (second compound 3.16 µM) was > 100 nM and the IC50 (second compound 10 µM) was > 100 nM. For the same molecule, the viability, T/C (second compound 0.0316 µM, first compound 0.000316 µM) was 97.8%, the viability, T/C (second compound 0.0316 µM, first compound 0.001 µM) was 82.9% and the viability, T/C [1] was 99.7%. For the same molecule, the viability, T/C [2] was 96.3%, the viability, T/C [3] was 74% and the viability, T/C [4] was 56.1%. For the same molecule, the viability, T/C (second compound 0.1 µM, first compound 0.000316 µM) was 90.3%, the viability, T/C (second compound 0.1 µM, first compound 0.001 µM) was 93.4% and the viability, T/C [5] was 110%. For the same molecule, the viability, T/C [6] was 87.2%, the viability, T/C [7] was 69.9% and the viability, T/C [8] was 56.4%. It also gave a viability, T/C (second compound 0.316 µM, first compound 0.000316 µM) of 91.4%, a viability, T/C (second compound 0.316 µM, first compound 0.001 µM) of 78.5% and a viability, T/C [9] of 82.5%. It also gave a viability, T/C [10] of 85.4%, a viability, T/C [11] of 74% and a viability, T/C [12] of 66.2%. The viability, T/C (second compound 1 µM, first compound 0.000316 µM) was 86.7%, the viability, T/C (second compound 1 µM, first compound 0.001 µM) was 83.2% and the viability, T/C [13] was 85.2%. For the same molecule, the viability, T/C [14] was 92.3%, the viability, T/C [15] was 67.6% and the viability, T/C [16] was 60.9%. It also gave a viability, T/C (second compound 3.16 µM, first compound 0.000316 µM) of 86.6%, a viability, T/C (second compound 3.16 µM, first compound 0.001 µM) of 89.3% and a viability, T/C [17] of 89.5%. It also gave a viability, T/C [18] of 78.8%, a viability, T/C [19] of 83.3% and a viability, T/C [20] of 56.1%. The viability, T/C (second compound 10 µM, first compound 0.000316 µM) was 86%, the viability, T/C (second compound 10 µM, first compound 0.001 µM) was 87% and the viability, T/C [21] was 89.3%. For the same molecule, the viability, T/C [22] was 76%, the viability, T/C [23] was 74% and the viability, T/C [24] was 58.1%.
